Measured values published in the NIST ThermoML archive (doi:10.1016/j.jct.2018.03.021).
Numbers after ± are expanded uncertainties.

Columns and labels:
[1] = molar heat capacity at constant pressure; xn = mol fraction of the nth substance listed; conditions: 100 kPa, Liquid, Extra sensitive DSC
[2] = xn = mol fraction of the nth substance listed; conditions: 100 kPa, Liquid, Vibrating tube method

Cc1ccc(C(C)C)cc1 [1-(1-methylethyl)-4-methylbenzene] + CCCO
molar heat capacity at constant pressure ([1]; 298.8 K, x1 = 0.0499): 151.2 ± 5.9 J/K/mol
molar heat capacity at constant pressure ([1]; 298.8 K, x1 = 0.1007): 159.6 ± 6.2 J/K/mol
molar heat capacity at constant pressure ([1]; 298.8 K, x1 = 0.2029): 174.5 ± 6.8 J/K/mol
molar heat capacity at constant pressure ([1]; 298.8 K, x1 = 0.3021): 186.9 ± 7.2 J/K/mol
molar heat capacity at constant pressure ([1]; 298.8 K, x1 = 0.4032): 198.6 ± 7.7 J/K/mol
molar heat capacity at constant pressure ([1]; 298.8 K, x1 = 0.5045): 210.6 ± 8.2 J/K/mol
molar heat capacity at constant pressure ([1]; 298.8 K, x1 = 0.6044): 221 ± 8.6 J/K/mol
molar heat capacity at constant pressure ([1]; 298.8 K, x1 = 0.6974): 229.1 ± 8.9 J/K/mol
molar heat capacity at constant pressure ([1]; 298.8 K, x1 = 0.8035): 237.6 ± 9.2 J/K/mol
molar heat capacity at constant pressure ([1]; 298.8 K, x1 = 0.8989): 242.2 ± 9.4 J/K/mol
molar heat capacity at constant pressure ([1]; 298.8 K, x1 = 0.9508): 242.4 ± 9.4 J/K/mol
molar heat capacity at constant pressure ([1]; 298.8 K, x1 = 1): 240.9 ± 9.3 J/K/mol
molar heat capacity at constant pressure ([1]; 308.7 K, x1 = 0.0499): 158.5 ± 6.1 J/K/mol
molar heat capacity at constant pressure ([1]; 308.7 K, x1 = 0.1007): 166.5 ± 6.5 J/K/mol
molar heat capacity at constant pressure ([1]; 308.7 K, x1 = 0.2029): 182.2 ± 7.1 J/K/mol
molar heat capacity at constant pressure ([1]; 308.7 K, x1 = 0.3021): 194 ± 7.5 J/K/mol
molar heat capacity at constant pressure ([1]; 308.7 K, x1 = 0.4032): 206.1 ± 8 J/K/mol
molar heat capacity at constant pressure ([1]; 308.7 K, x1 = 0.5045): 217.2 ± 8.4 J/K/mol
molar heat capacity at constant pressure ([1]; 308.7 K, x1 = 0.6044): 227.2 ± 8.8 J/K/mol
molar heat capacity at constant pressure ([1]; 308.7 K, x1 = 0.6974): 235 ± 9.1 J/K/mol
molar heat capacity at constant pressure ([1]; 308.7 K, x1 = 0.8035): 242.8 ± 9.4 J/K/mol
molar heat capacity at constant pressure ([1]; 308.7 K, x1 = 0.8989): 246.2 ± 9.5 J/K/mol
molar heat capacity at constant pressure ([1]; 308.7 K, x1 = 0.9508): 245.3 ± 9.5 J/K/mol
molar heat capacity at constant pressure ([1]; 308.7 K, x1 = 1): 244.8 ± 9.5 J/K/mol
molar heat capacity at constant pressure ([1]; 318.6 K, x1 = 0.0499): 165.9 ± 6.4 J/K/mol
molar heat capacity at constant pressure ([1]; 318.6 K, x1 = 0.1007): 173.5 ± 6.7 J/K/mol
molar heat capacity at constant pressure ([1]; 318.6 K, x1 = 0.2029): 188.4 ± 7.3 J/K/mol
molar heat capacity at constant pressure ([1]; 318.6 K, x1 = 0.3021): 201.2 ± 7.8 J/K/mol
molar heat capacity at constant pressure ([1]; 318.6 K, x1 = 0.4032): 213.2 ± 8.3 J/K/mol
molar heat capacity at constant pressure ([1]; 318.6 K, x1 = 0.5045): 223.9 ± 8.7 J/K/mol
molar heat capacity at constant pressure ([1]; 318.6 K, x1 = 0.6044): 233.3 ± 9 J/K/mol
molar heat capacity at constant pressure ([1]; 318.6 K, x1 = 0.6974): 240.8 ± 9.3 J/K/mol
molar heat capacity at constant pressure ([1]; 318.6 K, x1 = 0.8035): 248.1 ± 9.6 J/K/mol
molar heat capacity at constant pressure ([1]; 318.6 K, x1 = 0.8989): 250.4 ± 9.7 J/K/mol
molar heat capacity at constant pressure ([1]; 318.6 K, x1 = 0.9508): 248.8 ± 9.6 J/K/mol
molar heat capacity at constant pressure ([1]; 318.6 K, x1 = 1): 249.4 ± 9.7 J/K/mol
molar heat capacity at constant pressure ([1]; 328.5 K, x1 = 0.0499): 173.4 ± 6.7 J/K/mol
molar heat capacity at constant pressure ([1]; 328.5 K, x1 = 0.1007): 180.7 ± 7 J/K/mol
molar heat capacity at constant pressure ([1]; 328.5 K, x1 = 0.2029): 195.4 ± 7.6 J/K/mol
molar heat capacity at constant pressure ([1]; 328.5 K, x1 = 0.3021): 208.3 ± 8.1 J/K/mol
molar heat capacity at constant pressure ([1]; 328.5 K, x1 = 0.4032): 220.7 ± 8.5 J/K/mol
molar heat capacity at constant pressure ([1]; 328.5 K, x1 = 0.5045): 231.2 ± 9 J/K/mol
molar heat capacity at constant pressure ([1]; 328.5 K, x1 = 0.6044): 240.2 ± 9.3 J/K/mol
molar heat capacity at constant pressure ([1]; 328.5 K, x1 = 0.6974): 246.8 ± 9.6 J/K/mol
molar heat capacity at constant pressure ([1]; 328.5 K, x1 = 0.8035): 253.4 ± 9.8 J/K/mol
molar heat capacity at constant pressure ([1]; 328.5 K, x1 = 0.8989): 254.5 ± 9.9 J/K/mol
molar heat capacity at constant pressure ([1]; 328.5 K, x1 = 0.9508): 252.6 ± 9.8 J/K/mol
molar heat capacity at constant pressure ([1]; 328.5 K, x1 = 1): 254.6 ± 9.9 J/K/mol
mass density ([2]; 298.15 K, x1 = 0.0499): 804.92 ± 0.71 kg/m3
mass density ([2]; 298.15 K, x1 = 0.1007): 809.8 ± 0.71 kg/m3
mass density ([2]; 298.15 K, x1 = 0.2029): 818.12 ± 0.71 kg/m3
mass density ([2]; 298.15 K, x1 = 0.3021): 824.8 ± 0.71 kg/m3
mass density ([2]; 298.15 K, x1 = 0.4032): 830.42 ± 0.71 kg/m3
mass density ([2]; 298.15 K, x1 = 0.5045): 835.28 ± 0.71 kg/m3
mass density ([2]; 298.15 K, x1 = 0.6044): 839.47 ± 0.71 kg/m3
mass density ([2]; 298.15 K, x1 = 0.6974): 842.95 ± 0.71 kg/m3
mass density ([2]; 298.15 K, x1 = 0.8035): 846.57 ± 0.71 kg/m3
mass density ([2]; 298.15 K, x1 = 0.8989): 849.61 ± 0.71 kg/m3
mass density ([2]; 298.15 K, x1 = 0.9508): 851.22 ± 0.71 kg/m3
mass density ([2]; 298.15 K, x1 = 1): 852.99 ± 0.71 kg/m3
mass density ([2]; 308.15 K, x1 = 0.0499): 796.73 ± 0.71 kg/m3
mass density ([2]; 308.15 K, x1 = 0.1007): 801.54 ± 0.71 kg/m3
mass density ([2]; 308.15 K, x1 = 0.2029): 809.76 ± 0.71 kg/m3
mass density ([2]; 308.15 K, x1 = 0.3021): 816.37 ± 0.71 kg/m3
mass density ([2]; 308.15 K, x1 = 0.4032): 821.98 ± 0.71 kg/m3
mass density ([2]; 308.15 K, x1 = 0.5045): 826.83 ± 0.71 kg/m3
mass density ([2]; 308.15 K, x1 = 0.6044): 831.05 ± 0.71 kg/m3
mass density ([2]; 308.15 K, x1 = 0.6974): 834.57 ± 0.71 kg/m3
mass density ([2]; 308.15 K, x1 = 0.8035): 838.26 ± 0.71 kg/m3
mass density ([2]; 308.15 K, x1 = 0.8989): 841.39 ± 0.71 kg/m3
mass density ([2]; 308.15 K, x1 = 0.9508): 843.07 ± 0.71 kg/m3
mass density ([2]; 308.15 K, x1 = 1): 844.94 ± 0.71 kg/m3
mass density ([2]; 318.15 K, x1 = 0.0499): 788.38 ± 0.71 kg/m3
mass density ([2]; 318.15 K, x1 = 0.1007): 793.11 ± 0.71 kg/m3
mass density ([2]; 318.15 K, x1 = 0.2029): 801.22 ± 0.71 kg/m3
mass density ([2]; 318.15 K, x1 = 0.3021): 807.78 ± 0.71 kg/m3
mass density ([2]; 318.15 K, x1 = 0.4032): 813.38 ± 0.71 kg/m3
mass density ([2]; 318.15 K, x1 = 0.5045): 818.25 ± 0.71 kg/m3
mass density ([2]; 318.15 K, x1 = 0.6044): 822.51 ± 0.71 kg/m3
mass density ([2]; 318.15 K, x1 = 0.6974): 826.09 ± 0.71 kg/m3
mass density ([2]; 318.15 K, x1 = 0.8035): 829.87 ± 0.71 kg/m3
mass density ([2]; 318.15 K, x1 = 0.8989): 833.1 ± 0.71 kg/m3
mass density ([2]; 318.15 K, x1 = 0.9508): 834.88 ± 0.71 kg/m3
mass density ([2]; 318.15 K, x1 = 1): 836.86 ± 0.71 kg/m3
mass density ([2]; 328.15 K, x1 = 0.0499): 779.8 ± 0.71 kg/m3
mass density ([2]; 328.15 K, x1 = 0.1007): 784.46 ± 0.71 kg/m3
mass density ([2]; 328.15 K, x1 = 0.2029): 792.47 ± 0.71 kg/m3
mass density ([2]; 328.15 K, x1 = 0.3021): 798.98 ± 0.71 kg/m3
mass density ([2]; 328.15 K, x1 = 0.4032): 804.59 ± 0.71 kg/m3
mass density ([2]; 328.15 K, x1 = 0.5045): 809.51 ± 0.71 kg/m3
mass density ([2]; 328.15 K, x1 = 0.6044): 813.82 ± 0.71 kg/m3
mass density ([2]; 328.15 K, x1 = 0.6974): 817.49 ± 0.71 kg/m3
mass density ([2]; 328.15 K, x1 = 0.8035): 821.37 ± 0.71 kg/m3
mass density ([2]; 328.15 K, x1 = 0.8989): 824.75 ± 0.71 kg/m3
mass density ([2]; 328.15 K, x1 = 0.9508): 826.65 ± 0.71 kg/m3
mass density ([2]; 328.15 K, x1 = 1): 828.75 ± 0.71 kg/m3
